Source: patent publication US9707229B2, “Compositions and methods for treating an infection” (CMPD LICENSING, LLC, priority 2015, dated 2017)

What was measured:
Assay type in all cases: cell-based
[1] = test system: Aspergillus flavus; assay: Expected efficacy of antifungal agents
[2] = test system: Aspergillus fumigatus; assay: Expected efficacy of antifungal agents
[3] = test system: Aspergillus niger; assay: Expected efficacy of antifungal agents
[4] = test system: Aspergillus terreus; assay: Expected efficacy of antifungal agents
[5] = test system: Blastomyces dermatitidis; assay: Expected efficacy of antifungal agents
[6] = test system: Candida species; assay: Expected efficacy of antifungal agents
[7] = test system: Coccidioides immitis; conditions: expected efficacy
[8] = test system: Cryptococcus neoformans; assay: Expected efficacy of antifungal agents
[9] = test system: Histoplasma capsulatum; conditions: expected efficacy
[10] = test system: Leishmania donovani; assay: Expected efficacy of antifungal agents
[11] = test system: Leishmania infantum; assay: Expected efficacy of antifungal agents
[12] = test system: Paracoccidioides brasiliensis; assay: Expected efficacy of antifungal agents
[13] = test system: Fusarium species; assay: Expected efficacy of antifungal agents
[14] = test system: Scedosporium apiospermum; assay: Expected efficacy of antifungal agents
[15] = test system: Histoplasma duboisii; conditions: expected efficacy
[16] = test system: Sporothrix schenckii; assay: Expected efficacy of antifungal agents
[17] = test system: Trichophyton mentagrophytes; assay: Expected efficacy of antifungal agents
[18] = test system: Trichophyton rubrum; assay: Expected efficacy of antifungal agents

C[C@@H]1[C@H](O)[C@@H](C)/C=C/C=C/C=C/C=C/C=C/C=C/C=C/[C@H](O[C@@H]2O[C@H](C)[C@@H](O)[C@H](N)[C@@H]2O)C[C@@H]2O[C@](O)(C[C@@H](O)C[C@@H](O)[C@H](O)CC[C@@H](O)C[C@@H](O)CC(=O)O[C@H]1C)C[C@H](O)[C@H]2C(=O)O [Amphotericin]
yes: efficacy against Aspergillus flavus [1] | efficacy against Aspergillus fumigatus [2] | efficacy against Aspergillus niger [3] | efficacy against Aspergillus terreus [4] | efficacy against Blastomyces dermatitidis [5] | efficacy against Candida species [6] | efficacy against Coccidioides immitis [7] | efficacy against Cryptococcus neoformans [8] | efficacy against Histoplasma capsulatum [9] | efficacy against Leishmania donovani [10] | efficacy against Leishmania infantum [11] | efficacy against Paracoccidioides brasiliensis [12]

C[C@@H](c1ncncc1F)[C@](O)(Cn1cncn1)c1ccc(F)cc1F [Voriconazole]
yes: efficacy against Aspergillus flavus [1] | efficacy against Aspergillus fumigatus [2] | efficacy against Aspergillus niger [3] | efficacy against Aspergillus terreus [4] | efficacy against Candida species [6] | efficacy against Fusarium species [13] | efficacy against Scedosporium apiospermum [14]

Itraconazole
yes: efficacy against Aspergillus flavus [1] | efficacy against Aspergillus fumigatus [2] | efficacy against Blastomyces dermatitidis [5] | efficacy against Candida species [6] | efficacy against Coccidioides immitis [7] | efficacy against Cryptococcus neoformans [8] | efficacy against Histoplasma duboisii [15] | efficacy against Paracoccidioides brasiliensis [12] | efficacy against Sporothrix schenckii [16] | efficacy against Trichophyton mentagrophytes [17] | efficacy against Trichophyton rubrum [18]
